No end group written: not given here.
How the values were obtained:
Experiment in all cases: biochemical
Type in all cases: binding
[1] = molecular target: HLA-DR DRB1*0101 (DR1) (Homo sapiens, UniProt P01903+P01911, A100R/D57E/F55L/F60I/F76Y/I96L/L162R/M171V/P40L/Q125E/R42F/V115G/Y59C); conditions: DRB1 *0101
[2] = molecular target: HLA-DR DRB1*0401 (DR4) (Homo sapiens, UniProt P01903+P01911, A100K/A169T/F76Y/I96L/K127E/L162R/M171V/N62H/P40V/Q125Y/R42H/S133A/S149N/S66Y/V115G/V209L/W38E); conditions: DRB1 *0401
[3] = molecular target: HLA-DR DRB1*0802 (DR8) (Homo sapiens, UniProt P01903+P01911, A100R/A103L/A169T/F76Y/H45Y/I96F/K41T/L162R/M171V/P40S/Q125H/Q178H/Q39Y/Q99D/R218S/R42G/S66Y/V115G/W38E)
[4] = molecular target: HLA-DR DRB3*0101 (DR52) (Homo sapiens, UniProt P01903+P79483)
[5] = molecular target: HLA-DR DRB4*0101 (DR53) (Homo sapiens, UniProt P01903+P13762, G164S); conditions: DRB4 *0101
[6] = molecular target: HLA-DR DRB1*1101 (DR11) (Homo sapiens, UniProt P01903+P01911, A100R/A169T/A87E/I96F/K41T/L162R/M171V/P40S/Q125H/Q178H/Q39Y/Q99D/R42S/S66Y/T262R/V115G/W38E); conditions: DRB1 *1101
HLA-DR DRB1*1101 (DR11), sequence (P01903 26-254 limits assumed, other chains not shown): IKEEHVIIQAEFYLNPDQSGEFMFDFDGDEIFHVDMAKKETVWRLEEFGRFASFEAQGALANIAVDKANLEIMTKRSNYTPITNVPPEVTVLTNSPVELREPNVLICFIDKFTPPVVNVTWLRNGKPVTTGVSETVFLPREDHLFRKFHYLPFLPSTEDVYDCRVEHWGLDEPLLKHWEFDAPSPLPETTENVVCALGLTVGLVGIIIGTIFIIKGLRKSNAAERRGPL

[7] = molecular target: HLA-DR DRB1*0301 (DR3) (Homo sapiens, UniProt P01903+P01911, A100K/A102G/A103R/A169T/F55Y/I96L/K41T/L162R/M171V/P40S/Q125H/Q178H/Q39Y/R42S/S66N/T106N/T262R/W38E/Y61H)
HLA-DR DRB1*0301 (DR3), sequence (P01903 26-254 limits assumed, other chains not shown): as above

[8] = molecular target: HLA-DR DRB1*0901 (DR9) (Homo sapiens, UniProt P01903+P01911, A100R/A103E/D57H/D86V/F55Y/F60I/F76Y/I96F/K127E/L162R/M171V/P40D/Q125H/Q99R/R33Q/R42F/S133A/S66N/T210M/V115G/W38K/Y107V/Y59G/Y89S); conditions: DRB1 *0901
[9] = molecular target: HLA-DR DRB1*1302 (DR13) (Homo sapiens, UniProt P01903+P01911, A100E/A169T/K41T/L162R/M171V/P40S/Q125H/Q178H/Q39Y/Q99D/R42S/S66N/T262R/V115G/W38E/Y61H); conditions: DRBI *1302
HLA-DR DRB1*1302 (DR13), sequence (P01903 26-254 limits assumed, other chains not shown): as above

[10] = molecular target: HLA-DR DRB5*0101 (DR51) (Homo sapiens, UniProt P01903+Q30154); conditions: DRB5 *0101
[11] = molecular target: HLA-DR DRB1*0701 (DR7) (Homo sapiens, UniProt P01903+P01911, A100R/A102G/A103Q/D57E/D86V/E43K/F76Y/K127E/L162R/M171V/P40G/Q125H/Q99D/R33Q/R42Y/R54Q/S133A/S66F/T210M/V115G/Y107V/Y59L/Y89S); conditions: DRB1 *0701
[12] = molecular target: HLA-DR DRB1*1501 (DR15) (Homo sapiens, UniProt P01903+P01911); conditions: DRBI *1501

Compound | IC50 [1] [nM] | IC50 [2] [nM] | IC50 [3] [nM] | IC50 [4] [nM] | IC50 [5] [nM] | IC50 [6] [nM] | IC50 [7] [nM] | IC50 [8] [nM] | IC50 [9] [nM] | IC50 [10] [nM] | IC50 [11] [nM] | IC50 [12] [nM]
CC[C@H](C)[C@H](NC(=O)[C@H](CCC(N)=O)NC(=O)[C@@H](N)CCCNC(=N)N)C(=O)N[C@@H](Cc1ccc(O)cc1)C(=O)N[C@H](C(=O)N[C@@H](C)C(=O)N[C@@H](C)C(=O)N[C@@H](Cc1ccccc1)C(=O)N[C@H](C(=O)N[C@H](C(=O)N[C@@H](CCC(N)=O)C(=O)N[C@@H](C)C(=O)N[C@@H](C)C(=O)N[C@@H](C)C(=O)N[C@@H](CCC(=O)O)C(=O)O)C(C)C)[C@@H](C)O)C(C)C | 3.7 | 1.2 | 36 | 6810 | 47 | 35 | 28300 | 91 | 524 | – | – | –
SNLELLRISLLLIQS | 72 | – | > 33300 | > 91900 | – | 23700 | 43500 | 3420 | – | 50100 | 642 | 59
CC[C@H](C)[C@H](NC(=O)CNC(=O)[C@H](Cc1ccc(O)cc1)NC(=O)[C@H](CC(C)C)NC(=O)[C@H](CO)NC(=O)[C@H](CC(C)C)NC(=O)[C@H](CC(C)C)NC(=O)[C@H](CO)NC(=O)[C@@H](N)CC(C)C)C(=O)N[C@@H](Cc1c[nH]cn1)C(=O)N[C@@H](CCCCN)C(=O)N[C@@H](CCC(N)=O)C(=O)N[C@@H](CCCCN)C(=O)N[C@@H](CCC(=O)O)C(=O)N[C@@H](CCCCN)C(=O)O | 656 | 4440 | 1640 | > 15000 | 772 | – | > 81800 | 4960 | > 35000 | 3.4 | > 35700 | 58
KLKLYTGEATRTGDR | 178 | 15 | 2010 | 5300 | 14800 | – | 118000 | > 78900 | 841 | – | 8230 | 18
CC(C)C[C@H](NC(=O)[C@H](CCC(=O)O)NC(=O)[C@H](CCCCN)NC(=O)[C@H](C)NC(=O)[C@H](CC(C)C)NC(=O)[C@@H](NC(=O)[C@H](CO)NC(=O)[C@H](CCCNC(=N)N)NC(=O)[C@H](CC(=O)O)NC(=O)[C@H](CC(C)C)NC(=O)[C@H](Cc1c[nH]c2ccccc12)NC(=O)[C@H](Cc1ccccc1)NC(=O)[C@H](Cc1ccccc1)NC(=O)[C@H](CC(C)C)NC(=O)[C@@H](N)CC(C)C)C(C)C)C(=O)O | 2.9 | 2.6 | 163 | 86 | 7.5 | – | 6.3 | 518 | 24 | – | – | 34
CC[C@H](C)[C@H](NC(=O)[C@H](Cc1ccccc1)NC(=O)[C@H](Cc1c[nH]c2ccccc12)NC(=O)CNC(=O)[C@H](Cc1ccccc1)NC(=O)[C@H](CC(C)C)NC(=O)[C@H](Cc1ccccc1)NC(=O)CNC(=O)[C@@H](N)CC(C)C)C(=O)N[C@@H](CCCCN)C(=O)N[C@@H](CO)C(=O)N[C@@H](CO)C(=O)N[C@@H](CC(N)=O)C(=O)N[C@@H](CCC(=O)O)C(=O)N[C@@H](C)C(=O)O | 10 | 1340 | 1420 | 681 | 9280 | 7300 | > 75000 | 1700 | 10100 | 461 | 2260 | –
CC[C@H](C)[C@H](NC(=O)[C@H](CCCNC(=N)N)NC(=O)[C@@H](N)[C@@H](C)O)C(=O)N[C@@H](Cc1ccc(O)cc1)C(=O)N[C@@H](CC(N)=O)C(=O)N[C@H](C(=O)N[C@H](C(=O)NCC(=O)N[C@H](C(=O)N[C@@H](CC(C)C)C(=O)N[C@@H](CCCNC(=N)N)C(=O)NCC(=O)N[C@@H](C)C(=O)N[C@H](C(=O)N[C@@H](CCC(=O)O)C(=O)O)C(C)C)[C@@H](C)O)[C@@H](C)CC)C(C)C | 14 | 6.3 | 70 | 17500 | 447 | 45 | 33300 | 2900 | 1460 | 32 | 4810 | –
HPLYNMSLLKHQSLR | 232 | 499 | 382 | > 14900 | 8.4 | – | 13000 | 199 | 546 | 219 | 1280 | 472
TSITSLYQLENYTG | – | 1630 | 14600 | 92300 | 1660 | 1010 | 96700 | 46300 | > 17100 | 16100 | 8370 | –
CC[C@H](C)[C@H](NC(=O)[C@@H](NC(=O)[C@@H](N)CO)C(C)C)C(=O)N[C@@H](CC(C)C)C(=O)N[C@@H](CC(C)C)C(=O)NCC(=O)N[C@@H](CCCNC(=N)N)C(=O)N[C@@H](Cc1c[nH]cn1)C(=O)N[C@@H](CO)C(=O)N[C@@H](CC(C)C)C(=O)N[C@@H](Cc1ccccc1)C(=O)N[C@@H](Cc1c[nH]cn1)C(=O)N1CCC[C@H]1C(=O)N[C@@H](CCC(=O)O)C(=O)N[C@@H](CC(=O)O)C(=O)O [SVILLGRHSLFHPED] | 717 | 12600 | 500 | 13000 | 4410 | 96 | 1400 | 5220 | 96 | 16100 | – | –
GRLEYTLKDRRNFDI | 7250 | – | 4920 | 9900 | – | 5000 | 30 | > 77300 | – | 796 | 4960 | 168
EDFFKLERDMKINCS | 2710 | 226 | 1440 | 4040 | 7890 | – | 468 | > 52300 | 3190 | 3490 | 8550 | > 3490

— patent US20060079453A1, “Hla binding peptides and their uses” (priority 2002, published 2006)
